Test results as given in the supplement of paper PMC10307832.

What was measured:
Test in all cases: relative viability (nuclei count vs DMSO), 5 days (fraction); higher = more cells survive
Pazopanib + Vorinostat = compound: Cc1ccc(Nc2nccc(N(C)c3ccc4c(C)n(C)nc4c3)n2)cc1S(N)(=O)=O [Pazopanib] + O=C(CCCCCCC(=O)Nc1ccccc1)NO [Vorinostat] (partner 1 µM)
Method in brief: (§1)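 Cells from lung cancer lines were seeded into 1536-well plates and, one day later, dosed by pin tool. Treatments were either a single drug or a fixed dose of an anchor drug with five library-drug doses (not always all listed) in √10 steps. After 5 days, nuclei were stained in a one-step fixation (final 0.05% Triton X-100, 1% formaldehyde, 1 ug/ml Hoechst) and counted on 4× images, and relative viability is the treated-to-vehicle nuclei ratio, as the median of duplicate plates.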

Pazopanib + Crizotinib = compound: Cc1ccc(Nc2nccc(N(C)c3ccc4c(C)n(C)nc4c3)n2)cc1S(N)(=O)=O [Pazopanib] + C[C@@H](Oc1cc(-c2cnn(C3CCNCC3)c2)cnc1N)c1c(Cl)ccc(F)c1Cl [Crizotinib] (partner 1 µM)
Method in brief: as §1

Ponatinib + Pemetrexed = compound: Cc1ccc(C(=O)Nc2ccc(CN3CCN(C)CC3)c(C(F)(F)F)c2)cc1C#Cc1cnc2cccnn12 [Ponatinib] + Nc1nc2[nH]cc(CCc3ccc(C(=O)N[C@@H](CCC(=O)O)C(=O)O)cc3)c2c(=O)[nH]1 [Pemetrexed] (partner 0.2 µM)
Method in brief: as §1

Ponatinib + Foretinib = compound: Cc1ccc(C(=O)Nc2ccc(CN3CCN(C)CC3)c(C(F)(F)F)c2)cc1C#Cc1cnc2cccnn12 [Ponatinib] + COc1cc2c(Oc3ccc(NC(=O)C4(C(=O)Nc5ccc(F)cc5)CC4)cc3F)ccnc2cc1OCCCN1CCOCC1 [Foretinib] (partner 0.25 µM)
Method in brief: as §1

## UMC-11
Pazopanib + Vorinostat; first compound 0.01 µM
  relative viability: 0.353
Pazopanib + Vorinostat; first compound 0.03162 µM
  relative viability: 0.306
Pazopanib + Vorinostat; first compound 0.1 µM
  relative viability: 0.368
Pazopanib + Vorinostat; first compound 0.3162 µM
  relative viability: 0.371
Pazopanib + Vorinostat; first compound 1 µM
  relative viability: 0.446
Pazopanib + Crizotinib; first compound 0.01 µM
  relative viability: 0.625
Pazopanib + Crizotinib; first compound 0.03162 µM
  relative viability: 0.716
Pazopanib + Crizotinib; first compound 0.1 µM
  relative viability: 0.708
Pazopanib + Crizotinib; first compound 0.3162 µM
  relative viability: 0.675
Pazopanib + Crizotinib; first compound 1 µM
  relative viability: 0.588
Ponatinib + Pemetrexed; first compound 0.002 µM
  relative viability: 0.794
Ponatinib + Pemetrexed; first compound 0.006325 µM
  relative viability: 0.821
Ponatinib + Pemetrexed; first compound 0.06325 µM
  relative viability: 0.862
Ponatinib + Pemetrexed; first compound 0.2 µM
  relative viability: 0.685
Ponatinib + Foretinib; first compound 0.002 µM
  relative viability: 1.06
Ponatinib + Foretinib; first compound 0.006325 µM
  relative viability: 1.04
Ponatinib + Foretinib; first compound 0.06325 µM
  relative viability: 1.25
Ponatinib + Foretinib; first compound 0.2 µM
  relative viability: 1.03
